SMILES strings stand for the structures.

The source of these data is patent publication US11306096B2, “4,6 dihydropyrrolo [3,4-C] pyrazole-5 (1H)-carbonitrile derivates for treating cancer” (MISSION THERAPEUTICS LIMITED, priority 2016, dated 2022).

Chain of USP7 (Q93009 whole entry): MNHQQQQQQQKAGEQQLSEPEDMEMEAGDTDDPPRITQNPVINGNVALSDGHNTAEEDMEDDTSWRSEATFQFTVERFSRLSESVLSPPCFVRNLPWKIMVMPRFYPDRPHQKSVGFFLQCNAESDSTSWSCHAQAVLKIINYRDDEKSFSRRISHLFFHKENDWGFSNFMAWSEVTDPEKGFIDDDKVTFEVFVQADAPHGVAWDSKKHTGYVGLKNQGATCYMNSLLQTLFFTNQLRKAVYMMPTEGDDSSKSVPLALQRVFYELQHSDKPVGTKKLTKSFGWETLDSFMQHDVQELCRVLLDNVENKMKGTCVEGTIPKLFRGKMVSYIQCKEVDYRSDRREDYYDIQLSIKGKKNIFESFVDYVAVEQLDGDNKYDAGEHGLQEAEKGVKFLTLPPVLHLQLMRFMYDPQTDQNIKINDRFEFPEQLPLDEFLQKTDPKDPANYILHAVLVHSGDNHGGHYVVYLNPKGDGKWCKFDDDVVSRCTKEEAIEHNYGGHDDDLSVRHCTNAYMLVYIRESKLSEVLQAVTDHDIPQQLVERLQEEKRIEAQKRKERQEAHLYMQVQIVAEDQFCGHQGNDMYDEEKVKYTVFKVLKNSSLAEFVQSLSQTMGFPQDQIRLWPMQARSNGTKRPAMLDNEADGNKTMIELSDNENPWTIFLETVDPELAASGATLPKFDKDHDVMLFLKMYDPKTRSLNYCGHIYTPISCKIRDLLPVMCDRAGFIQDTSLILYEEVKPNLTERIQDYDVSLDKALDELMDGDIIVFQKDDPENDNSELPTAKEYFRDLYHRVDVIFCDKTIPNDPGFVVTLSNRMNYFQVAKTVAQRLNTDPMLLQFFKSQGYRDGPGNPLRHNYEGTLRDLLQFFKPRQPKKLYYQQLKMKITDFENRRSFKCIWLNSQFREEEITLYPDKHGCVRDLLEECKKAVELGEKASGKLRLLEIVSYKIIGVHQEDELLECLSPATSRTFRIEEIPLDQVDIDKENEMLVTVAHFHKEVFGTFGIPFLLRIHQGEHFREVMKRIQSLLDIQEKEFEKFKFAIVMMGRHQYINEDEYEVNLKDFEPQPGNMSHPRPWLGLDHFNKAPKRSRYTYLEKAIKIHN

The target in the assay is USP7 (Homo sapiens (Human), UniProt Q93009). As to the kind of experiment: USP7 Biochemical IC50 Assay. The conditions noted are these: FLAG-USP7; enzyme and compound incubated 30 min at room temp; TAMRA labelled peptide-ubiquitin fluorescence polarisation substrate; read after 2 hr; read-out: IC50 range. As to the method:
The USP7 construct was PCR amplified and cloned into a pFLAG-CMV-6a vector (Sigma-Aldrich) with an N-terminal FLAG tag. HEK293T cells were transfected with FLAG-USP7 using TransIT-LT1 transfection reagent (Mirus) according to the manufacturer's instructions. Cells were harvested 40 hours after transfection. […] The resin was washed two times with low salt buffer plus protease inhibitors (complete mini, Roche) and phosphatase inhibitors (PhosSTOP mini, Roche) and one time with high salt buffer (20 mM Tris, pH 7.5, 500 mM NaCl, 0.5 mM EDTA, 5 mM beta-mercaptoethanol, protease inhibitors (complete mini, Roche) and phosphatase inhibitors (PhosSTOP mini, Roche). To elute the bound USP7, elution buffer (10 mM Tris, pH 7.5, 150 mM NaCl, 0.5 mM EDTA, 10% glycerol, 0.5% NP40, 5 mM beta-mercaptoethanol, 0.15 mg/ml 3×FLAG peptide (Sigma-Aldrich)) was added to the resin and incubated at 4° C. for 2.5 hours rotating. The resin was centrifuged at 4000 rpm for 30 seconds, and the supernatant containing purified FLAG-USP7 was removed and stored at −80° C.
USP7 Biochemical IC50 Assay
A typical 8-point dilution series would be 100, 30, 10, 3, 1, 0.3, 0.1, 0.03 μM final. […] Either 1 μl of 50% DMSO or diluted compound was added to the plate. USP7 was diluted in reaction buffer (20 mM Tris, pH 7.5, 100 mM NaCl, 0.05% Tween 20, 0.5 mg/ml BSA, 5 mM—beta mercaptoethanol) to the equivalent of 0.0025 μl/well and 10 μl of diluted USP7 was added to the compound. Enzyme and compound were incubated for 30 min at room temp. Reactions were initiated by the addition of 50 nM of TAMRA labelled peptide linked to ubiquitin via an iso-peptide bond as fluorescence polarisation substrate. Reactions were read immediately after addition of substrate and following a 2 hr incubation at room temperature. Readings were performed on a Pherastar Plus (BMG Labtech). λ Excitation 540 nm; λ Emission 590 nm.
(In general: Polarisation of emitted light reports the rotation of a fluorescent probe.)
As for `Cc1nn(-c2ccccc2)c2c1CN(C#N)C2` [Example 10, 3-Methyl-1-phenyl-4,6-dihydropyrrolo[3,4-c]pyrazole-5(1H)-carbonitrile], the half-inhibitory concentration (IC50) fell in the range of 10 to 30 µM.

Regarding `CN1CCN(c2ccc(-c3n[nH]c4c3CN(C#N)C4)c(F)c2)CC1` [Example 73, 3-(2-Fluoro-4-(4-methylpiperazin-1-yl)phenyl)-4,6-dihydro-pyrrolo[3,4-c]pyrazole-5(1H)-carbonitrile], the IC50 is < 10 µM.

For the compound `COc1ccc(-c2n[nH]c3c2CN(C#N)C3)cn1` [Example 46, 3-(6-Methoxypyridin-3-yl)-4,6-dihydro-pyrrolo[3,4-c]pyrazole-5(1H)-carbonitrile], the IC50 was < 10 µM.

`Cn1ncc2cc(-n3ncc4c3CN(C#N)C4)ccc21` [Example 17, 1-(1-Methyl-1H-indazol-5-yl)-4,6-dihydropyrrolo[3,4-c]pyrazole-5(1H)-carbonitrile]: the 50% inhibitory concentration (IC50) is < 10 µM.

As for `Cc1ccc(F)c(-c2n[nH]c3c2CN(C#N)C3)c1` [Example 27, 3-(2-Fluoro-5-methylphenyl)-4,6-dihydropyrrolo[3,4-c]pyrazole-5(1H)-carbonitrile], the IC50 was < 10 µM.

As to `Cn1nc(-c2ccccc2)c2c1CN(C#N)C2` [Example 21, 1-Methyl-3-phenyl-4,6-dihydropyrrolo[3,4-c]pyrazole-5(1H)-carbonitrile], the IC50 is < 10 µM.

Regarding `N#CN1Cc2cnn(-c3ccccc3)c2C1` [Example 2, 1-Phenyl-4,6-dihydropyrrolo[3,4-c]pyrazole-5(1H)-carbonitrile], the 50% inhibitory concentration (IC50) was in the range of 10 to 30 µM.

As for `N#Cc1ccc(-c2n[nH]c3c2CN(C#N)C3)cc1` [Example 42, 3-(4-Cyanophenyl)-4,6-dihydropyrrolo[3,4-c]pyrazole-5(1H)-carbonitrile], the half-maximal inhibitory concentration (IC50) was < 10 µM.

In the case of `N#CN1Cc2[nH]nc(CNC(=O)c3cc(-c4ccccc4)n[nH]3)c2C1` [Example 34, N-((5-Cyano-1,4,5,6-tetrahydropyrrolo[3,4-c]pyrazol-3-yl)methyl)-3-phenyl-1H-pyrazole-5-carboxamide], the IC50 is < 10 µM.

For `N#CN1Cc2c(-c3ccccc3)nn(Cc3ccccc3)c2C1` [Example 24, 1-Benzyl-3-phenyl-4,6-dihydropyrrolo[3,4-c]pyrazole-5(1H)-carbonitrile], the IC50 was in the range of 10 to 30 µM.

As to `N#CN1Cc2[nH]nc(-c3cccc(OC(F)(F)F)c3)c2C1` [Example 40, 3-(3-(Trifluoro-methoxy)phenyl)-4,6-dihydropyrrolo[3,4-c]pyrazole-5(1H)-carbonitrile], the 50% inhibitory concentration (IC50) was in the range of 10 to 30 µM.

For `N#CN1Cc2[nH]nc(-c3ccccc3F)c2C1` [Example 58, 3-(2-Fluorophenyl)-4,6-dihydropyrrolo[3,4-c]pyrazole-5(1H)-carbonitrile], the IC50 is < 10 µM.

Turning to `N#Cc1cccc(-c2n[nH]c3c2CN(C#N)C3)c1` [Example 38, 3-(3-Cyanophenyl)-4,6-dihydropyrrolo[3,4-c]pyrazole-5(1H)-carbonitrile], the IC50 was < 10 µM.

For `N#CN1Cc2[nH]nc(-c3ccccc3)c2C1` [Example 29, 3-Phenyl-4,6-dihydropyrrolo[3,4-c]pyrazole-5(1H)-carbonitrile], the concentration for half-maximal inhibition (IC50) is < 10 µM.

As for `N#CN1Cc2cnn(-c3ccc(F)cc3)c2C1` [Example 3, 1-(4-Fluorophenyl)-4,6-dihydropyrrolo[3,4-c]pyrazole-5(1H)-carbonitrile], the IC50 is < 10 µM.

As for `N#CN1Cc2cnn(-c3ccc(C(=O)NCc4ccccn4)cc3)c2C1` [Example 14, 4-(5-Cyano-5,6-dihydro-pyrrolo[3,4-c]pyrazol-1(4H)-yl)-N-(pyridin-2-ylmethyl)benzamide], the IC50 is 10 to 30 µM.

On to `COc1ccc(-n2ncc3c2CN(C#N)C3)cc1` [Example 1, 1-(4-Methoxyphenyl)-4,6-dihydropyrrolo[3,4-c]pyrazole-5(1H)-carbonitrile], for which the concentration for half-maximal inhibition (IC50) is 10 to 30 µM.

On to `CC(C)Oc1ccc(F)cc1-c1n[nH]c2c1CN(C#N)C2` [Example 48, 3-(5-Fluoro-2-isopropoxyphenyl)-4,6-dihydropyrrolo[3,4-c]pyrazole-5(1H)-carbonitrile], for which the half-inhibitory concentration (IC50) is < 10 µM.

As for `N#CN1Cc2[nH]nc(-c3ccnn3Cc3ccccc3)c2C1` [Example 53, 3-(1-Benzyl-1H-pyrazol-5-yl)-4,6-dihydropyrrolo[3,4-c]pyrazole-5(1H)-carbonitrile], the half-maximal inhibitory concentration (IC50) was in the range of 10 to 30 µM.

For `CN(C)S(=O)(=O)c1cccc(-c2n[nH]c3c2CN(C#N)C3)c1` [Example 47, 3-(5-Cyano-1,4,5,6-tetrahydropyrrolo[3,4-c]pyrazol-3-yl)-N,N-dimethylbenzene-sulfonamide], the 50% inhibitory concentration (IC50) was < 10 µM.

In the case of `N#CN1Cc2[nH]nc(-c3ccc(Oc4ccccc4)cc3)c2C1` [Example 41, 3-(4-Phenoxyphenyl)-4,6-dihydropyrrolo[3,4-c]pyrazole-5(1H)-carbonitrile], the 50% inhibitory concentration (IC50) was < 10 µM.

With `N#CN1Cc2[nH]nc(-c3ccc(F)cc3)c2C1` [Example 59, 3-(4-Fluorophenyl)-4,6-dihydropyrrolo[3,4-c]pyrazole-5(1H)-carbonitrile], the IC50 was < 10 µM.

For the compound `N#CN1Cc2cnn(-c3ccc(C(N)=O)cc3)c2C1` [Example 5, 4-(5-Cyano-5,6-dihydropyrrolo[3,4-c]pyrazol-1(4H)-yl)benzamide], the IC50 lay within 10 to 30 µM.

Turning to `N#CN1Cc2[nH]nc(-c3ccc(C(=O)NCc4ccccc4)cc3)c2C1` [Example 49, N-Benzyl-4-(5-cyano-1,4,5,6-tetrahydropyrrolo[3,4-c]pyrazol-3-yl)benzamide], the IC50 is < 10 µM.

In the case of `CN1CCN(c2ccc(-c3n[nH]c4c3CN(C#N)C4)cn2)CC1` [Example 69, 3-(6-(4-Methylpiperazin-1-yl)pyridin-3-yl)-4,6-dihydropyrrolo[3,4-c]pyrazole-5(1H)-carbonitrile], the IC50 was < 10 µM.

On to `COc1ccc(C(C)C)cc1-c1nn(Cc2ccccc2)c2c1CN(C#N)C2` [Example 25, 1-Benzyl-3-(5-isopropyl-2-methoxyphenyl)-4,6-dihydropyrrolo[3,4-c]pyrazole-5(1H)-carbonitrile], for which the half-maximal inhibitory concentration (IC50) was 10 to 30 µM.

Take `COc1cc(Cl)ccc1-c1n[nH]c2c1CN(C#N)C2` [Example 67, 3-(4-Chloro-2-methoxyphenyl)-4,6-dihydropyrrolo[3,4-c]pyrazole-5(4H)-carbonitrile]: the 50% inhibitory concentration (IC50) is < 10 µM.

Consider `CC(NC(=O)c1cccc(-n2ncc3c2CN(C#N)C3)c1)c1ccccc1` (stereo not shown) [Example 12, 3-(5-Cyano-5,6-dihydropyrrolo[3,4-c]pyrazol-1(4H)-yl)-N-(1-phenylethyl)benzamide], for which the half-maximal inhibitory concentration (IC50) was in the range of 10 to 30 µM.

Regarding `COc1ccc(Cl)cc1-c1n[nH]c2c1CN(C#N)C2` [Example 77, 3-(5-Chloro-2-methoxyphenyl)-4,6-dihydropyrrolo[3,4-c]pyrazole-5(4H)-carbonitrile], the IC50 was < 10 µM.

As for `COc1cc(-n2cccn2)ccc1-c1n[nH]c2c1CN(C#N)C2` [Example 70, 3-(2-Methoxy-4-(1H-pyrazol-1-yl)phenyl)-4,6-dihydropyrrolo[3,4-c]pyrazole-5(4H)-carbonitrile], the IC50 is < 10 µM.

Turning to `CNC(=O)c1ccc(-n2ncc3c2CN(C#N)C3)cc1` [Example 15, 4-(5-Cyano-5,6-dihydropyrrolo[3,4-c]pyrazol-1(4H)-yl)-N-methylbenzamide], the concentration for half-maximal inhibition (IC50) lay in the range of 10 to 30 µM.

One may read the IC50 as the concentration that inhibits the measured activity by half.
